Tests used:
Assay in all cases: relative viability (nuclei count vs DMSO), 5 days (fraction); higher = more cells survive
[1] = compound: CC[C@@H](C)CNCC(=O)N1CCC2=C([C@@H]1COC3=CC=CC(=C3)C)C=CS2 [RU-SKI 43] + Cc1nc(NC(=O)N2CCC[C@H]2C(N)=O)sc1-c1ccnc(C(C)(C)C(F)(F)F)c1 [Alpelisib] (partner 2 µM)
In short: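 For relative viability, nuclei counts in treated wells were divided by those in vehicle wells. Lung cancer cell lines had been pin-tool dosed in 1536-well plates the day after seeding and cultured for 5 days, then fixed and stained in one step (final 0.05% Triton X-100, 1% formaldehyde, 1 ug/ml Hoechst) and imaged at 4×. Doses were one drug alone or a fixed anchor-drug dose plus five library-drug doses (not always all listed) in √10 steps, and values are duplicate-plate medians.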

[2] = compound: Cn1cc(-c2cnc3ccc4ccc(CS(=O)(=O)NCc5ccccn5)cc4c(=O)c3c2)cn1 [MK-8033]
In short: (§1)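 Viability is treated-well nuclei as a fraction of vehicle-well nuclei, reported as the median across plates. Before counting, lung cancer cell lines were kept overnight at 37 °C in 1536-well plates, pinned with five √10-spaced library-drug doses on vehicle-anchored plates, and left 5 days without medium change, then fixed, permeabilised and Hoechst-stained in one step, imaged at 4× and counted by MetaXpress. A plate passed only if control CV was below 25% and at least one doubling occurred.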

[3] = compound: CC[C@@H](C)CNCC(=O)N1CCC2=C([C@@H]1COC3=CC=CC(=C3)C)C=CS2 [RU-SKI 43]
In short: as §1

[4] = compound: CCc1c2c(nc3ccc(OC(=O)N4CCC(N5CCCCC5)CC4)cc13)-c1cc3c(c(=O)n1C2)COC(=O)[C@]3(O)CC [Irinotecan]
In short: as §1

| Cell Line | relative viability ([1]; first compound 0.1 µM) | relative viability ([1]; first compound 0.3162 µM) | relative viability ([1]; first compound 1 µM) | relative viability ([1]; first compound 3.162 µM) | relative viability ([1]; first compound 10 µM) | relative viability ([2]; 0.02 µM) | relative viability ([2]; 0.06325 µM) | relative viability ([2]; 0.2 µM) | relative viability ([2]; 0.6325 µM) | relative viability ([2]; 2 µM) | relative viability ([3]; 0.1 µM) | relative viability ([3]; 0.3162 µM) | relative viability ([3]; 1 µM) | relative viability ([3]; 3.162 µM) | relative viability ([3]; 10 µM) | relative viability ([4]; 0.6325 µM) | relative viability ([4]; 2 µM) | relative viability ([4]; 6.325 µM) | relative viability ([4]; 20 µM) |
| --- | --- | --- | --- | --- | --- | --- | --- | --- | --- | --- | --- | --- | --- | --- | --- | --- | --- | --- | --- |
| SK-MES-1 | 0.893 | 0.879 | 1.01 | 1.15 | 0.892 | 0.925 | 0.935 | 0.942 | 0.96 | 0.998 | 1.05 | 1.16 | 1.01 | 1.05 | 0.977 | 0.873 | 0.799 | 0.327 | 0.236 |
| HOP-62 | 0.978 | 0.934 | 1.26 | 1.09 | 1.01 | 1 | 0.976 | 0.98 | 0.989 | 0.973 | 1.05 | 0.986 | 1.11 | 1.09 | 1.09 | 0.558 | 0.714 | 0.194 | 0.2 |
| NCI-H520 | 0.968 | 1.01 | 1.09 | 0.918 | 0.793 | 1.06 | 0.98 | 1.01 | 1.03 | 0.928 | 1.07 | 1.08 | 1.09 | 1.06 | 0.938 | 0.898 | 0.726 | 0.365 | 0.325 |
| EBC-1 | 0.784 | 0.92 | 0.925 | 0.799 | 0.68 | 0.973 | 0.943 | 0.965 | 0.928 | 0.386 | 0.863 | 1.13 | 1.1 | 0.989 | 0.635 | 0.618 | 0.44 | 0.345 | 0.179 |
| BEN | 1.04 | 1.13 | 1.07 | 1.06 | 1 | 1.04 | 0.913 | 0.963 | 0.934 | 0.939 | 1.05 | 0.987 | 1.25 | 0.991 | 1.05 | 0.735 | 0.73 | 0.345 | 0.338 |
| NCI-H322M | 0.85 | 0.852 | 0.833 | 0.891 | 0.794 | 0.952 | 0.766 | 0.878 | 0.957 | 0.929 | 0.985 | 0.945 | 1.05 | 0.939 | 0.978 | 0.8 | 0.754 | 0.503 | 0.385 |
| LU99A | 0.526 | 0.558 | 0.5 | 0.578 | 0.456 | 1.05 | 0.897 | 0.817 | 0.947 | 0.926 | 0.93 | 1.08 | 0.95 | 0.966 | 0.851 | 0.38 | 0.355 | 0.215 | 0.212 |
| NCI-H2405 | 0.8 | 0.787 | 0.651 | 0.789 | 0.721 | 1.02 | 0.944 | 0.94 | 1.02 | 1.01 | 0.996 | 0.977 | 1.05 | 0.96 | 0.967 | – | 0.953 | 0.426 | 0.217 |

From the supplement of paper PMC10307832
